Test results from paper PMC9468151, “Identification of a binding site on soluble RANKL that can be targeted to inhibit soluble RANK-RANKL interactions and treat osteoporosis” (Nature Communications, 2022).
Values joined by “and” are separate entries in the source; they are usually repeats but may differ in a detail not shown here. Identical values can stand only once. “Also recorded” adds a separate entry of the source.

Tests used:
[1] = system: sRANKL induced osteoclast differentiation; experiment: In vitro anti-osteoclastogenesis activity determination (TRAP staining); type: cell-based, mouse; settings: BMMs, M-CSF + 100 ng/mL sRANKL, 5 days, TRAP staining
Description: Mouse osteoclasts were cultured according to the previously reported protocols. BMMs were plated in 96-well plates at a density of 6 × 10^3 cells/well with complete medium containing 10 ng/mL M-CSF. The following day, cells were then stimulated with 100 ng/mL sRANKL in the presence or absence of compounds with different concentrations every 2 days until osteoclasts formed. In order to calculate IC50, we set 9 concentrations for each compound and untreated and non-sRANKL unstimulating group as controls, each with triplicated repeated wells. After 5 days, cells were fixed with 4% paraformaldehyde and then applied TRAP-staining to identify osteoclasts by using the TRAP-staining kit. Osteoclasts number (OC No.) in each well was counted and the percentage of inhibition ratio was calculated as follows:1 OCinhibitoryratio%=100−OCNo.treated−OCNo.unstimulating/OCNo.untreated−OCNo.unstimulating×100%
The dosages and their correspondent osteoclastogenesis inhibitory activity curve and IC50 value were conducted by using Nonlinear regression (curve fit) analytic procedure in GraphPad Prism 8. Photographs of individual wells were taken using Leica microscope.

T lymphocyte = T lymphocyte cell proliferation assay (CFSE, CD4+/CD8+ flow cytometry); type: cell-based, human
Description: T lymphocyte cell proliferation assay was performed according to a reported method[58] with some modification. Briefly, 5 × 10^6 cells /mL cells were stained 2.5 μM CFSE (Tonbo Biosciences) and incubated at 37 °C for 12 min. Then washed and discarded the supernatant and adjusted the CFSE stained cell to 1.75 × 10^6 cells /mL. Cells were diluted in 1640 completed medium containing 5 μg/mL anti-CD3 antibody (Tonbo Biosciences) to 3 × 10^5 cells/mL and seed in a 96-well plate or 24-well plate that pre-packaged 0.4 μg/well anti-CD28 antibody and 1.6 μg anti-CD28 antibody (24-well) (Tonbo Biosciences). Cells were then cultured for 3 days, 9 days or 12 days. Subsequently, the proportion of CD4^+ and CD8^+ cells was determined by flow cytometry (Beckman Coulter, FC500) according to manufacturer’s instruction of PE-Cyanine7 anti-Human CD8a and PE anti-Human CD4 antibodies (Tonbo Biosciences). Data analyzing was performed by using CXP software (Beckman Coulter, Supplementary Fig. 8).

[2] = Cancer donor 1, 3 day, Denosumab 2
[3] = Cancer donor 1, 3 day, Denosumab 10
[4] = Cancer donor 1, 3 day, Denosumab 50
[5] = Cancer donor 1, 3 day, Denosumab 100
[6] = Healthy donor 1, 3 day, Denosumab 2
[7] = Healthy donor 1, 3 day, Denosumab 10
[8] = Healthy donor 1, 3 day, Denosumab 50
[9] = Healthy donor 1, 3 day, Denosumab 100
[10] = Healthy donor 1, 12 day, Denosumab 2
[11] = Healthy donor 1, 12 day, Denosumab 10
[12] = Healthy donor 1, 12 day, Denosumab 50
[13] = Healthy donor 1, 12 day, Denosumab 100
[14] = Healthy donor 2, 9 day, Denosumab 2
[15] = Healthy donor 2, 9 day, Denosumab 10
[16] = Healthy donor 2, 9 day, Denosumab 50
[17] = Healthy donor 2, 9 day, Denosumab 100
[18] = cancer patient donors 1, 3 day, Denosumab conc. 2
[19] = cancer patient donors 1, 3 day, Denosumab conc. 10
[20] = cancer patient donors 1, 3 day, Denosumab conc. 50
[21] = cancer patient donors 1, 3 day, Denosumab conc. 100
[22] = healthy donors 2, 9 day, Denosumab conc. 2
[23] = healthy donors 2, 9 day, Denosumab conc. 10
[24] = healthy donors 2, 9 day, Denosumab conc. 50
[25] = healthy donors 2, 9 day, Denosumab conc. 100

CCOC(=O)c1sc(NC(=O)C(=NNc2cc(C(=O)O)ccc2C(=O)O)C(C)=O)nc1C [S3-04]
OC IC50 (anti-osteoclastogenesis activity) [1]: Inactive; also recorded: lose osetoclastogenesis inhibitory activities

Denosumab: human monoclonal antibody targeting RANKL [reference compound]
CD8+ cells in total cells (%) (T lymphocyte; [2]): 12.95% and 18.88% and 19.88% | CD8+cells in CFSE-cells (%) (T lymphocyte; [2]): 47.83% and 52.36% and 55.86% | CFSE- cells in total cells (%) (T lymphocyte; [2]): 7.68% and 12.7% and 13.49% | CD8+ cells in total cells (%) (T lymphocyte; [3]): 19.52% and 20.76% and 18.73% and 17.85% | CD8+cells in CFSE-cells (%) (T lymphocyte; [3]): 58.3% and 60.56% and 50.89% and 60.05% | CFSE- cells in total cells (%) (T lymphocyte; [3]): 14.67% and 15.58% and 13.42% and 13.19% | CD8+ cells in total cells (%) (T lymphocyte; [4]): 26.97% and 21.55% and 18.02% and 16.53% | CD8+cells in CFSE-cells (%) (T lymphocyte; [4]): 60.83% and 60.63% and 65.78% and 55.26% | CFSE- cells in total cells (%) (T lymphocyte; [4]): 18.07% and 17.65% and 14.37% and 12.07% | CD8+ cells in total cells (%) (T lymphocyte; [5]): 18.07% and 12.62% and 9.75% and 19.7% | CD8+cells in CFSE-cells (%) (T lymphocyte; [5]): 58.14% and 64.44% and 57.46% and 66.87% | CFSE- cells in total cells (%) (T lymphocyte; [5]): 13.67% and 8.82% and 5.94% and 14.04% | CD4+cells in total cells (%) (T lymphocyte; [6]): 69.69% and 70.06% and 70.95% and 70.86% | CD8+ cells in total cells (%) (T lymphocyte; [6]): 18.8% and 18.88% and 18.25% and 19.29% | CD8+cells in CFSE-cells (%) (T lymphocyte; [6]): 26.34% and 25.38% and 32.57% and 36.89% | CFSE- cells in total cells (%) (T lymphocyte; [6]): 26.84% and 28.54% and 29.29% and 24.77% | CD4+cells in total cells (%) (T lymphocyte; [7]): 65.55% and 67.08% and 69.8% and 70.72% | CD8+ cells in total cells (%) (T lymphocyte; [7]): 12.83% and 18.37% and 19.41% and 19.55% | CD8+cells in CFSE-cells (%) (T lymphocyte; [7]): 30.74% and 26.84% and 36.74% and 30.32% | CFSE- cells in total cells (%) (T lymphocyte; [7]): 20.59% and 18.28% and 26.59% and 31.48% | CD4+cells in total cells (%) (T lymphocyte; [8]): 67.05% and 68.05% and 69.94% | CD8+ cells in total cells (%) (T lymphocyte; [8]): 11.73% and 19.23% and 18.46% and 17.76% | CD8+cells in CFSE-cells (%) (T lymphocyte; [8]): 24.41% and 28.83% and 32.28% and 24% | CFSE- cells in total cells (%) (T lymphocyte; [8]): 15.36% and 19.21% and 18.01% and 22.17% | CD4+cells in total cells (%) (T lymphocyte; [9]): 70.71% and 71.03% and 67.42% and 69.45% | CD8+ cells in total cells (%) (T lymphocyte; [9]): 18.51% and 19.03% and 18% | CD8+cells in CFSE-cells (%) (T lymphocyte; [9]): 34.99% and 31.86% and 30.15% and 27.25% | CFSE- cells in total cells (%) (T lymphocyte; [9]): 23.52% and 25.01% and 20.72% and 24.32% | CD4+cells in total cells (%) (T lymphocyte; [10]): 26.49% and 25.92% and 26.52% and 28.25% | CD8+ cells in total cells (%) (T lymphocyte; [10]): 16.3% and 19.12% and 15.44% and 15.28% | CD8+cells in CFSE-cells (%) (T lymphocyte; [10]): 73.19% and 72% and 71.55% and 68.56% | CFSE- cells in total cells (%) (T lymphocyte; [10]): 14.97% and 17.18% and 14.07% and 13.53% | CD4+cells in total cells (%) (T lymphocyte; [11]): 25.95% and 25.52% and 26.76% and 24.64% | CD8+ cells in total cells (%) (T lymphocyte; [11]): 15.64% and 17.84% and 16.84% and 18.91% | CD8+cells in CFSE-cells (%) (T lymphocyte; [11]): 74.4% and 67.54% and 67.82% and 72.96% | CFSE- cells in total cells (%) (T lymphocyte; [11]): 15.13% and 15.31% and 14.05% and 17.18% | CD4+cells in total cells (%) (T lymphocyte; [12]): 24.55% and 27.22% and 26.53% and 28.64% | CD8+ cells in total cells (%) (T lymphocyte; [12]): 20.42% and 18.55% and 17.94% and 15.51% | CD8+cells in CFSE-cells (%) (T lymphocyte; [12]): 76.93% and 74.3% and 73% and 74.26% | CFSE- cells in total cells (%) (T lymphocyte; [12]): 19.56% and 16.94% and 16.16% and 14.84% | CD4+cells in total cells (%) (T lymphocyte; [13]): 25.87% and 24.55% and 27.13% and 25.36% | CD8+ cells in total cells (%) (T lymphocyte; [13]): 17.35% and 16.6% and 14.41% and 19% | CD8+cells in CFSE-cells (%) (T lymphocyte; [13]): 75.89% and 76.07% and 78.18% and 58.5% | CFSE- cells in total cells (%) (T lymphocyte; [13]): 16.6% and 18.55% and 14.85% and 14.03% | CD8+ cells in total cells (%) (T lymphocyte; [14]): 62.1% and 50.03% and 44.09% | CD8+cells in CFSE-cells (%) (T lymphocyte; [14]): 46.7% and 62.97% and 61.41% | CFSE- cells in total cells (%) (T lymphocyte; [14]): 29.5% and 51.59% and 42.27% | CD8+cells in CFSE-cells (%) (T lymphocyte; [15]): 52.77% and 43.74% and 55.57% | CFSE- cells in total cells (%) (T lymphocyte; [15]): 41.17% and 28.01% and 37.92% | CD8+ cells in total cells (%) (T lymphocyte; [16]): 20.69% and 38.29% and 38.09% | CD8+cells in CFSE-cells (%) (T lymphocyte; [16]): 53.31% and 54.69% and 48.69% | CFSE- cells in total cells (%) (T lymphocyte; [16]): 29.61% and 31.67% and 28.7% | CD8+ cells in total cells (%) (T lymphocyte; [17]): 58.4% and 50.02% and 56.13% | CD8+cells in CFSE-cells (%) (T lymphocyte; [17]): 75.13% and 70.69% and 68.35% | CFSE- cells in total cells (%) (T lymphocyte; [17]): 59.44% and 46.67% and 44.15% | CD4+cells in total cells (%) (T lymphocyte; [18]): 2.77% and 5.83% and 5.1% | CFSE-CD4+cells in CFSE-cells (%) (T lymphocyte; [18]): 6.78% and 7.64% and 7.28% | CD4+cells in total cells (%) (T lymphocyte; [19]): 4.94% and 4.86% and 1.84% and 3.11% | CFSE-CD4+cells in CFSE-cells (%) (T lymphocyte; [19]): 6.34% and 3.24% and 8% and 8.92% | CD4+cells in total cells (%) (T lymphocyte; [20]): 1.87% and 6.24% and 6.17% and 6.5% | CFSE-CD4+cells in CFSE-cells (%) (T lymphocyte; [20]): 4% and 0.79% and 1.56% and 4.58% | CD4+cells in total cells (%) (T lymphocyte; [21]): 9.55% and 7.15% and 9.97% and 6.77% | CFSE-CD4+cells in CFSE-cells (%) (T lymphocyte; [21]): 4% and 0% and 0.9% | CD4+CFSE− cell after treatment (T lymphocyte; cancer patient, Fig. 7c, control 5.32 ± 0.76%): 1.33 ± 2.31% | total T cells isolated from cancer patient after treatment (T lymphocyte; cancer patient, Fig. 7c, control 14.51 ± 3.71%): 3.88 ± 1.77% | CD4+cells in total cells (%) (T lymphocyte; healthy donors 1, 3 day, Denosumab conc. 2): 72.37% and 73.3% and 66.26% and 61.44% | CD4+cells in total cells (%) (T lymphocyte; healthy donors 1, 3 day, Denosumab conc. 10): 65.16% and 71.53% and 62.16% and 68.6% | CD4+cells in total cells (%) (T lymphocyte; healthy donors 1, 3 day, Denosumab conc. 50): 73.23% and 69.38% and 66.17% and 74.19% | CD4+cells in total cells (%) (T lymphocyte; healthy donors 1, 3 day, Denosumab conc. 100): 64% and 66.67% and 68.46% and 71.67% | CFSE-CD4+cells in CFSE-cells (%) (T lymphocyte; healthy donors 1, 12 day, Denosumab conc. 2): 9.68% and 10.89% and 9.04% and 9.57% | CFSE-CD4+cells in CFSE-cells (%) (T lymphocyte; healthy donors 1, 12 day, Denosumab conc. 10): 10.52% and 10.85% and 8.44% and 10.78% | CFSE-CD4+cells in CFSE-cells (%) (T lymphocyte; healthy donors 1, 12 day, Denosumab conc. 50): 8.71% and 10.48% and 9.97% and 9.81% | CFSE-CD4+cells in CFSE-cells (%) (T lymphocyte; healthy donors 1, 12 day, Denosumab conc. 100): 9.75% and 11.53% and 10.58% | CD4+cells in total cells (%) (T lymphocyte; [22]): 17% and 17.01% and 14.7% | CFSE-CD4+cells in CFSE-cells (%) (T lymphocyte; [22]): 42.1% and 26.91% and 24.13% | CD4+cells in total cells (%) (T lymphocyte; [23]): 13.52% and 17.3% and 15.5% | CFSE-CD4+cells in CFSE-cells (%) (T lymphocyte; [23]): 24.29% and 47.85% and 28.82% | CD4+cells in total cells (%) (T lymphocyte; [24]): 12.4% and 14.63% and 15.19% | CFSE-CD4+cells in CFSE-cells (%) (T lymphocyte; [24]): 19.21% and 28.79% and 29.22% | CD4+cells in total cells (%) (T lymphocyte; [25]): 14.9% and 10.87% and 12.57% | CFSE-CD4+cells in CFSE-cells (%) (T lymphocyte; [25]): 20.36% and 16.35% and 22.15% | total CD4+ and CD4+CFSE− T cell (T lymphocyte; human 2, 9 days, 100 μg/mL): dropped by nearly half | lymphocyte proliferation (T lymphocyte; human lymphocytes, in words): notably inhibits lymphocyte proliferation at high concentration
